# Measurements: patent US10011814B2, “Salt formulations for the fermentation of marine microorganisms” (Triphase Research and Development I Corp., priority 2006, dated 2018)
# Where two headings read alike, the source gives them in different places.
# Experiments:
# [1] = test system: Salinispora tropica NPS021184; details: NPS21184, day 6 production culture
# Procedure: (§1) The first seed cultures (100 mL medium) in 500-mL Erlenmeyer flasks were incubated for 96 hours before inoculating 5 mL of the first seed culture into the second seed medium with the same composition as the first seed medium. The second seed cultures (100 mL medium in 500-mL Erlenmeyer flask) were incubated for 48 hours before inoculating 5 mL of the second seed culture into the production medium (100 mL in a 500-mL Erlenmeyer flask).
# (§2) Per liter of DI H2O, the production medium consisted of: 10 g Starch, 4 g Hy Soy, 4 g Yeast Extract, 1 g CaCO3, 40 mg Fe2(SO4)3, and 100 mg KBr. The production medium was then supplemented with a chemically defined salt formulation consisted of the following common salt components along with different levels of NaCl:
# (§3) The NaCl levels used were 0, 5, 10, 15, 20, 24 and 30 g/L. About […], sterile XAD-7 resin slurry was added to the production cultures in a final concentration of 20 g/L. The production culture was then further incubated and harvested at various time points to determine productivity.
# [2] = test system: Salinispora tropica CNB476; details: CNB476, day 6 production culture
# Procedure: as §1, §2, §3
# [3] = test system: Salinispora tropica CNB440; details: CNB440, day 6 production culture
# Procedure: as §1, §2, §3
smiles,measurement,setting,value
[Cl-].[Na+] [NaCl],Packed Cell Volume,[1]; NaCl 0 g/L,0%
same,Packed Cell Volume,[1]; NaCl 5 g/L,6%
same,Packed Cell Volume,[1]; NaCl 10 g/L,6%
same,Packed Cell Volume,[1]; NaCl 15 g/L,6%
same,Packed Cell Volume,[1]; NaCl 20 g/L,5%
same,Packed Cell Volume,[1]; NaCl 24 g/L,5%
same,Packed Cell Volume,[1]; NaCl 30 g/L,5%
same,Packed Cell Volume,[2]; NaCl 0 g/L,0%
same,Packed Cell Volume,[2]; NaCl 5 g/L,2%
same,Packed Cell Volume,[2]; NaCl 10 g/L,5%
same,Packed Cell Volume,[2]; NaCl 15 g/L,5%
same,Packed Cell Volume,[2]; NaCl 20 g/L,6%
same,Packed Cell Volume,[2]; NaCl 24 g/L,6%
same,Packed Cell Volume,[2]; NaCl 30 g/L,6%
same,Packed Cell Volume,[3]; NaCl 0 g/L,0%
same,Packed Cell Volume,[3]; NaCl 5 g/L,5%
same,Packed Cell Volume,[3]; NaCl 10 g/L,5%
same,Packed Cell Volume,[3]; NaCl 15 g/L,4%
same,Packed Cell Volume,[3]; NaCl 20 g/L,5%
same,Packed Cell Volume,[3]; NaCl 24 g/L,5%
same,Packed Cell Volume,[3]; NaCl 30 g/L,5%
